Assay results reported in US20170112861A1, “DRUG DELIVERY ENHANCER COMPRISING SUBSTANCE FOR ACTIVATING LYSOPHOSPHOLIPID RECEPTORS” (Osaka University, priority 2014, published 2017).

Columns and labels:
[1] = test system: Mouse melanoma B16-BL6 cells; assay: Combined administration of LPA and 5-FU, tumor growth in B16-BL6 cell tumor-bearing mice; format: in vivo; conditions: B16-BL6 tumors; LPA 3 mg/kg i.p. once daily for seven days; 5-FU 100 mg/kg i.p. on days 7 and 14
Protocol: LLC cells were subcutaneously inoculated into C57BL/6 NCrSlc mice aged 8 weeks in the same manner as in Example 1. An LPA administration solution was prepared in the same manner as in Example 1. The anticancer drug used was 5-FU (Kyowa Hakko Kirin Co., Ltd.). The 5-FU was prepared as a solution in physiological saline (Otsuka Pharmaceutical Co., Ltd.). On day 7 post-inoculation of LLC cells, mice with a tumor volume of 30 to 50 mm^3 were selected and subjected to the test. The mice were divided into four groups: control group, 5-FU group, LPA group and 5-FU/LPA group (n=3). LPA (3 mg/kg in 100 μL PBS) or 5-FU (100 mg/kg in 100 μL PBS) or PBS (100 μL) was administered intraperitoneally. To 5-FU/LPA group, both LPA and 5-FU were administered intraperitoneally. LPA and PBS were administered once daily for consecutive seven days. 5-FU was administered twice in total, once a week for two weeks (on days 7 and 14 post-inoculation). The tumor size was measured over time after start of administration. The tumor volume was calculated by the formula: volume=length×width×height×0.5. Mice at 2 weeks after start of administration were photographed with a digital camera under anesthesia with pentobarbital. The tumors were harvested and photographed with a digital camera.
Mouse melanoma B16-BL6 cells were used. […]

[2] = test system: VE-cadherin in tumor blood vessels of LLC cell tumors; assay: VE-cadherin expression in vascular endothelial cells of tumors after LPA administration; format: in vivo, mice; conditions: LPA 3 mg/kg i.p., 24 hours after administration
Protocol: LLC cells were subcutaneously inoculated into C57BL/6 NCrSlc mice aged 8 weeks (females, SLC, Inc.) in the same manner as in Example 1. An LPA administration solution was prepared in the same manner as in Example 1. Mice on day 9 post-inoculation of LLC cells (individuals with a tumor volume of 60 to 80 mm^3) were subjected to the experiment. The mice were divided into two groups: control group and LPA group (n=3). LPA was intraperitoneally administered to the mice of the LPA group at a dose of 3 mg/kg in 100 μL PBS. The tumors of the control group were harvested just after grouping, and the tumors of the LPA group were harvested at 24 hours after LPA administration. The tumor tissue specimens were immunostained in the same manner as in Example 1 except that the primary antibody and the secondary antibody were changed. The primary antibody was Purified […] Anti-mouse VE-cadherin (BD pharmingen), and the anti-mouse VE-cadherin antibody was diluted to 200-fold in blocking solution. The secondary antibody was Alexa Fluor 488 Goat Anti-rat IgG (Life technologies), and the antibody was diluted to 400-fold in blocking solution. The prepared specimens were observed and photographed under a confocal laser microscope (Leica). Z-stack images were acquired using a confocal laser microscope and analyzed for the expression level (fluorescence intensity) of VE-cadherin.

LLC cell tumors = assay: Delivery of FITC-labeled dextrans (70 kDa, 2000 kDa) to tumor tissues after LPA administration; format: in vivo; conditions: LLC tumor-bearing mice, LPA 3 mg/kg i.p., dextran i.v. 24 hours later, tumors harvested after 30 minutes
Protocol: LLC cells were subcutaneously inoculated into C57BL/6 NCrSlc mice aged 8 weeks (females, SLC, Inc.) in the same manner as in Example 1. An LPA administration solution was prepared in the same manner as in Example 1. On day 11 post-inoculation of LLC cells, mice with a tumor volume of 100 to 120 mm^3 were selected. The mice were divided into four groups: control and LPA groups with administration of 70 kDa dextran, and control and LPA groups with administration of 2000 kDa dextran (n=3). LPA (3 mg/kg in 100 μL PBS) or PBS (100 μL) was administered intraperitoneally. At 24 hours after LPA or PBS administration, each type of dextran was administered to the tail vein of the mice under anesthesia with pentobarbital. The dextrans used (70 kDa and 2000 kDa) were FITC-labeled dextrans (Sigma). Each type of dextran was prepared as a solution by dissolving and diluting the FITC-labeled dextran in PBS to a concentration of […], and 100 μL of the solution was used for the administration. At 30 minutes after administration of each type of dextran, the tumors were harvested from the mice, and the tumor specimens were prepared in the same manner as in Example 4. The specimens were observed and photographed under a confocal laser microscope (Leica).

## lysophosphatidic acid [LPA]
[1]
  tumor growth (tumor volume): some inhibitory effects on tumor growth as compared with the control
[2]
  expression level (fluorescence intensity) of VE-cadherin from Z-stack images: a strong fluorescence intensity on the cell membrane
  localization of VE-cadherin in tumor vascular endothelial cells: VE-cadherin localized on the cell-cell junctions
LLC cell tumors
  delivery of 70 kDa FITC-labeled dextran to tumor: delivery of 70 kDa and 2000 kDa dextrans to tumors in the deep lobe was observed
  delivery of 2000 kDa FITC-labeled dextran to tumor: delivery of 70 kDa and 2000 kDa dextrans to tumors in the deep lobe was observed
